Laboratory results taken from US11078193B2 (priority 2014, dated 2021).

Legend:
[1] = test system: HBV; assay: anti HBV activity, HepG2.117 inducibly HBV producing cell line (Tet-off), intracellular HBV DNA by realtime PCR; type: cell-based; details: Hepatitis B virus, 72 h, HepG2.117 cells, 3 days of treatment
[2] = Cytotoxicity, HepG2 cells, Resazurin assay; type: cell-based; details: human

C[C@@H](NS(=O)(=O)c1cn(C)c(C(=O)Nc2ccc(F)c(C#N)n2)c1Cl)C(F)(F)F [Compound 156, 3-chloro-N-(6-cyano-5-fluoro-2-pyridyl)-1-methyl-4-[[(1R)-2,2,2-trifluoro-1-methyl-ethyl]sulfamoyl]pyrrole-2-carboxamide]
EC50 [1]: 140 nM
CC50 at 4 days [2]: > 25 µM

CC[C@H](NS(=O)(=O)c1cn(C)c(C(=O)Nc2ccnc(C(F)F)c2)c1Cl)C(F)(F)F [Compound 84, 3-chloro-N-[2-(difluoromethyl)-4-pyridyl]-1-methyl-4-[[(1S)-1-(trifluoromethyl)propyl]sulfamoyl]pyrrole-2-carboxamide]
EC50 [1]: 110 nM
CC50 at 4 days [2]: > 25 µM

Cn1cc(S(=O)(=O)NC2(C)CC(F)(F)C2)c(Cl)c1C(=O)Nc1ccnc(C(F)(F)F)c1 [Compound 66, 3-chloro-4-[(3,3-difluoro-1-methyl-cyclobutyl)sulfamoyl]-1-methyl-N-[2-(trifluoromethyl)-4-pyridyl]pyrrole-2-carboxamide]
EC50 [1]: 90 nM
CC50 at 4 days [2]: > 25 µM

Cn1cc(S(=O)(=O)NC2(C(F)(F)F)CCC2)c(Cl)c1C(=O)Nc1ccnc(Br)c1 [Compound 110, N-(2-bromo-4-pyridyl)-3-chloro-1-methyl-4-[[1-(trifluoromethyl)cyclobutyl]sulfamoyl]pyrrole-2-carboxamide]
EC50 [1]: 20 nM
CC50 at 4 days [2]: > 25 µM

C[C@@H](NS(=O)(=O)c1cn(C)c(C(=O)Nc2ccnc(C(F)(F)F)c2F)c1Cl)C(F)(F)F [Compound 56, 3-chloro-N-[3-fluoro-2-(trifluoromethyl)-4-pyridyl]-1-methyl-4-[[(1R)-2,2,2-trifluoro-1-methyl-ethyl]sulfamoyl]pyrrole-2-carboxamide]
EC50 [1]: 50 nM
CC50 at 4 days [2]: > 25 µM

C[C@@H](NS(=O)(=O)c1cn(C)c(C(=O)Nc2ccc(F)nc2)c1Cl)C(F)(F)F [Compound 50, 3-chloro-N-(6-fluoro-3-pyridyl)-1-methyl-4-[[(1R)-2,2,2-trifluoro-1-methyl-ethyl]sulfamoyl]pyrrole-2-carboxamide]
EC50 [1]: 200 nM
CC50 at 4 days [2]: > 25 µM

CC[C@@H](C)NS(=O)(=O)c1cn(C)c(C(=O)Nc2ccnc(C(F)(F)F)c2)c1Cl [Compound 70, 3-chloro-1-methyl-4-[[(1R)-1-methylpropyl]sulfamoyl]-N-[2-(trifluoromethyl)-4-pyridyl]pyrrole-2-carboxamide]
EC50 [1]: 150 nM
CC50 at 4 days [2]: > 25 µM

Cn1cc(S(=O)(=O)N[C@H]2CCOC2)c(Cl)c1C(=O)Nc1ccnc(Cl)c1 [Compound 91, 3-chloro-N-(2-chloro-4-pyridyl)-1-methyl-4-[[(3S)-tetrahydrofuran-3-yl]sulfamoyl]pyrrole-2-carboxamide]
EC50 [1]: 200 nM
CC50 at 4 days [2]: > 25 µM

Cn1cc(S(=O)(=O)NC2(C(F)(F)F)CCC2)c(F)c1C(=O)Nc1ccnc(F)c1F [Compound 170, N-(2,3-difluoro-4-pyridyl)-3-fluoro-1-methyl-4-[[1-(trifluoromethyl)cyclobutyl]sulfamoyl]pyrrole-2-carboxamide]
EC50 [1]: 40 nM
CC50 at 4 days [2]: > 25 µM

CC[C@@H](C)NS(=O)(=O)c1cn(C)c(C(=O)Nc2ccnc(C(F)(F)F)c2)c1F [Compound 68, 3-fluoro-1-methyl-4-[[(1R)-1-methylpropyl]sulfamoyl]-N-[2-(trifluoromethyl)-4-pyridyl]pyrrole-2-carboxamide]
EC50 [1]: 50 nM
CC50 at 4 days [2]: > 25 µM

Cn1cc(S(=O)(=O)NC2(C(F)(F)F)CC2)cc1C(=O)Nc1ccnc(Cl)c1 [Compound 52, N-(2-chloro-4-pyridyl)-1-methyl-4-[[1-(trifluoromethyl)cyclopropyl]-sulfamoyl]pyrrole-2-carboxamide]
EC50 [1]: 80 nM
CC50 at 4 days [2]: > 25 µM

Cn1cc(S(=O)(=O)NC2(C)CC(F)(F)C2)c(F)c1C(=O)Nc1cc(Br)nc(Br)c1 [Compound 135, N-(2,6-dibromo-4-pyridyl)-4-[(3,3-difluoro-1-methyl-cyclobutyl)sulfamoyl]-3-fluoro-1-methyl-pyrrole-2-carboxamide]
EC50 [1]: 180 nM
CC50 at 4 days [2]: 13 µM

C[C@@H](NS(=O)(=O)c1cc(C(=O)Nc2ccnc(F)c2)n(C)c1)C(C)(F)F [Compound 102, 4-[[(1R)-2,2-difluoro-1-methyl-propyl]sulfamoyl]-N-(2-fluoro-4-pyridyl)-1-methyl-pyrrole-2-carboxamide]
EC50 [1]: 180 nM
CC50 at 4 days [2]: > 25 µM

C[C@@H](NS(=O)(=O)c1cn(C)c(C(=O)Nc2ccc(F)c(C#N)n2)c1C#N)C(F)(F)F [Compound 181, 3-cyano-N-(6-cyano-5-fluoro-2-pyridyl)-1-methyl-4-[[(1R)-2,2,2-trifluoro-1-methyl-ethyl]sulfamoyl]pyrrole-2-carboxamide]
EC50 [1]: 1000 nM
CC50 at 4 days [2]: > 25 µM

CC(C)NS(=O)(=O)c1cn(C)c(C(=O)Nc2ccnc(C#N)c2)c1F [Compound 27, N-(2-cyano-4-pyridyl)-3-fluoro-4-(isopropylsulfamoyl)-1-methyl-pyrrole-2-carboxamide]
EC50 [1]: 100 nM
CC50 at 4 days [2]: > 25 µM

Cn1cc(S(=O)(=O)NC2(C)CC(F)(F)C2)c(Cl)c1C(=O)Nc1ccnc(Br)c1F [Compound 161, N-(2-bromo-3-fluoro-4-pyridyl)-3-chloro-4-[(3,3-difluoro-1-methyl-cyclobutyl)sulfamoyl]-1-methyl-pyrrole-2-carboxamide]
EC50 [1]: 10 nM
CC50 at 4 days [2]: > 25 µM

Cn1cc(S(=O)(=O)NC2CCC2(F)F)c(F)c1C(=O)Nc1ccnc(C(F)F)c1 (centres unmarked) [Compound 127, 4-[(2,2-difluorocyclobutyl)sulfamoyl]-N-[2-(difluoromethyl)-4-pyridyl]-3-fluoro-1-methyl-pyrrole-2-carboxamide]
EC50 [1]: 50 nM
CC50 at 4 days [2]: > 25 µM

C[C@@H](NS(=O)(=O)c1cn(C)c(C(=O)Nc2cc(F)ncc2F)c1Cl)C(F)(F)F [Compound 140, 3-chloro-N-(2,5-difluoro-4-pyridyl)-1-methyl-4-[[(1R)-2,2,2-trifluoro-1-methyl-ethyl]sulfamoyl]pyrrole-2-carboxamide]
EC50 [1]: 200 nM
CC50 at 4 days [2]: > 25 µM

C[C@@H](NS(=O)(=O)c1cn(C)c(C(=O)Nc2ccnc(C#N)c2F)c1F)C(F)(F)F [Compound 155, N-(2-cyano-3-fluoro-4-pyridyl)-3-fluoro-1-methyl-4-[[(1R)-2,2,2-trifluoro-1-methyl-ethyl]sulfamoyl]pyrrole-2-carboxamide]
EC50 [1]: 20 nM
CC50 at 4 days [2]: > 25 µM

Cc1cc(NC(=O)c2c(Cl)c(S(=O)(=O)N[C@H](C)C(F)(F)F)cn2C)cc(C)n1 [Compound 144, 3-chloro-N-(2,6-dimethyl-4-pyridyl)-1-methyl-4-[[(1R)-2,2,2-trifluoro-1-methyl-ethyl]sulfamoyl]pyrrole-2-carboxamide]
EC50 [1]: 300 nM
CC50 at 4 days [2]: > 25 µM

C[C@@H](NS(=O)(=O)c1cn(C)c(C(=O)Nc2ccc(F)nc2F)c1Cl)C(F)(F)F [Compound 77, 3-chloro-N-(2,6-difluoro-3-pyridyl)-1-methyl-4-[[(1R)-2,2,2-trifluoro-1-methyl-ethyl]sulfamoyl]pyrrole-2-carboxamide]
EC50 [1]: 300 nM
CC50 at 4 days [2]: > 25 µM

C[C@@H](NS(=O)(=O)c1cn(C)c(C(=O)Nc2cc(F)nc(F)c2F)c1Cl)C(F)(F)F [Compound 43, 3-chloro-1-methyl-4-[[(1R)-2,2,2-trifluoro-1-methyl-ethyl]sulfamoyl]-N-(2,3,6-trifluoro-4-pyridyl)pyrrole-2-carboxamide]
EC50 [1]: 80 nM
CC50 at 4 days [2]: > 25 µM
